Measurements taken from PubChem BioAssay (NCI).
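Protocol summary: plate cells (96-well), add compound at 5 concentrations, incubate 48 h, interpolate endpoints linearly. GI50: concentration for 50% inhibition of growth. TGI: total growth inhibition.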

Key:
Experiment in all cases: NCI tumour cell line growth inhibition, 48 h
[1] = system: 786-0 renal
[2] = system: MDA-MB-435
[3] = system: SK-MEL-2 melanoma
[4] = system: TK-10 renal
[5] = system: COLO 205 colon
[6] = system: SK-MEL-28 melanoma
[7] = system: OVCAR-4 ovarian
[8] = system: HT29 colon
[9] = system: LOX IMVI melanoma
[10] = system: A549 NSCLC
[11] = system: SF-295 CNS
[12] = system: HL-60(TB) leukemia
[13] = system: RPMI-8226 leukemia
[14] = system: KM12 colon
[15] = system: T-47D breast
[16] = system: SF-268 CNS
[17] = system: NCI/ADR-RES ovarian
[18] = system: HOP-92 NSCLC
[19] = system: OVCAR-5 ovarian
[20] = system: HCT-116 colon
[21] = system: CAKI-1 renal
[22] = system: UACC-257 melanoma
[23] = system: MDA-MB-231 breast
[24] = system: OVCAR-3 ovarian
[25] = system: NCI-H23 lung
[26] = system: NCI-H460 lung
[27] = system: SK-OV-3 ovarian
[28] = system: SF-539 CNS
[29] = system: CCRF-CEM leukemia
[30] = system: PC-3 prostate
[31] = system: NCI-H226 lung
[32] = system: HCC-2998 colon
[33] = system: HCT-15 colon
[34] = system: K-562 leukemia
[35] = system: UO-31 renal
[36] = system: U251 CNS
[37] = system: A498 renal
[38] = system: HOP-62 NSCLC
[39] = system: MCF7 breast
[40] = system: MALME-3M melanoma
[41] = system: DU-145 prostate
[42] = system: EKVX NSCLC
[43] = system: SK-MEL-5 melanoma
[44] = system: SR leukemia
[45] = system: IGROV1 ovarian
[46] = system: MOLT-4 leukemia
[47] = system: RXF 393 renal
[48] = system: HS 578T breast
[49] = system: SNB-19 CNS
[50] = system: BT-549 breast
[51] = system: SW-620 colon
[52] = system: NCI-H522 lung
[53] = system: SNB-75 CNS
[54] = system: ACHN renal
[55] = system: SN12C renal
[56] = system: OVCAR-8 ovarian
[57] = system: UACC-62 melanoma
[58] = system: M14 melanoma

Cn1cc(-c2ccc3c(Nc4cccc(NC(=O)Nc5cccc(F)c5)c4)ncnc3c2)cn1
GI50 [1]: 1.87 µM
TGI [1]: 4.46 µM
GI50 [2]: 1.49 µM
TGI [2]: 2.89 µM
GI50 [3]: 4.43 µM
TGI [3]: 17.8 µM
GI50 [4]: 2.72 µM
TGI [4]: 10.2 µM
GI50 [5]: 0.0503 µM
TGI [5]: 13.4 µM
GI50 [6]: 1.55 µM
TGI [6]: 3.08 µM
GI50 [7]: 1.85 µM
TGI [7]: 4.41 µM
GI50 [8]: 1.97 µM
TGI [8]: 12.6 µM
GI50 [9]: 1.55 µM
TGI [9]: 3.64 µM
GI50 [10]: 1.85 µM
TGI [10]: 17.9 µM
GI50 [11]: 1.81 µM
TGI [11]: 8.42 µM
GI50 [12]: 5.9 µM
TGI [12]: 28 µM
GI50 [13]: 1.53 µM
TGI [13]: 4.65 µM
GI50 [14]: 2.52 µM
TGI [14]: 10.8 µM
GI50 [15]: 1.62 µM
TGI [15]: 28.7 µM
GI50 [16]: 1.64 µM
TGI [16]: 11.2 µM
GI50 [17]: 10.8 µM
TGI [17]: > 100 µM
GI50 [18]: 2.23 µM
TGI [18]: 9.08 µM
GI50 [19]: 10.3 µM
TGI [19]: 22 µM
GI50 [20]: 2.04 µM
TGI [20]: 7.9 µM
GI50 [21]: 0.559 µM
TGI [21]: 14.9 µM
GI50 [22]: 4.5 µM
TGI [22]: 22.5 µM
GI50 [23]: 2.88 µM
TGI [23]: 12.3 µM
GI50 [24]: 1.51 µM
TGI [24]: 3.27 µM
GI50 [25]: 2.99 µM
TGI [25]: 13.4 µM
GI50 [26]: 0.984 µM
TGI [26]: 2.41 µM
GI50 [27]: 0.61 µM
TGI [27]: 13.1 µM
GI50 [28]: 0.0554 µM
TGI [28]: 2.21 µM
GI50 [29]: 0.0474 µM
TGI [29]: 13.7 µM
GI50 [30]: 2.78 µM
TGI [30]: 15.5 µM
GI50 [31]: 12.1 µM
TGI [31]: 35.9 µM
GI50 [32]: 4.81 µM
TGI [32]: 16.2 µM
GI50 [33]: 2.5 µM
TGI [33]: 13.1 µM
GI50 [34]: 2.14 µM
TGI [34]: > 100 µM
GI50 [35]: 2.09 µM
TGI [35]: 13.7 µM
GI50 [36]: 1.79 µM
TGI [36]: 5.07 µM
GI50 [37]: 0.0532 µM
TGI [37]: 2.99 µM
GI50 [38]: 1.84 µM
TGI [38]: 14.9 µM
GI50 [39]: 1.14 µM
TGI [39]: 5.07 µM
GI50 [40]: 1.29 µM
TGI [40]: 3.79 µM
GI50 [41]: 1.86 µM
TGI [41]: 6.6 µM
GI50 [42]: 6.22 µM
TGI [42]: 24.3 µM
GI50 [43]: 1.53 µM
TGI [43]: 2.94 µM
GI50 [44]: 1.24 µM
TGI [44]: > 100 µM
GI50 [45]: 1.3 µM
TGI [45]: 11.2 µM
GI50 [46]: 1.95 µM
TGI [46]: 14.6 µM
GI50 [47]: 1.2 µM
TGI [47]: 3.83 µM
GI50 [48]: 1.5 µM
TGI [48]: 9.79 µM
GI50 [49]: 3.16 µM
TGI [49]: 13.5 µM
GI50 [50]: 4.04 µM
TGI [50]: 16 µM
GI50 [51]: 1.9 µM
TGI [51]: 4.45 µM
GI50 [52]: 1.22 µM
TGI [52]: 15.9 µM
GI50 [53]: 0.0391 µM
TGI [53]: 9.57 µM
GI50 [54]: 2.17 µM
TGI [54]: 13.2 µM
GI50 [55]: 1.6 µM
TGI [55]: 4.29 µM
GI50 [56]: 2.25 µM
TGI [56]: > 100 µM
GI50 [57]: 3.21 µM
TGI [57]: 15 µM
GI50 [58]: 2.61 µM
TGI [58]: 14.9 µM
